According to patent US20030220373A1, “Therapeutic uses of PPAR mediators” (priority 2000, published 2003):

tested on: ABC1 expression; experiment: ABC1 up-regulation in human THP-1 cells by PPAR mediators (Northern blotting; also quantitative PCR Taqman); type: cell-based; conditions: relative to DMSO
Experimental: THP-1 cells, a human monocytic cell line, are maintained in RPMI with 10% FCS (fetal calf serum)/[…] gentamycin/25 mM Hepes. Cells are plated at approximately 1×10^5 per cm^2 in RPMI/10% charcoal-stripped FCS (Hyclone) the presence or absence of 100 ng/ml PMA (phorbol myritic acid)(Gibco BRL) and the indicated concentrations of test compound or DMSO (dimethyl sulfoxide). Test compounds are refreshed daily. Alternatively, cells are incubated with […] AcLDL (acetylated LDL) as positive control. After 48 or 72 hours, cellular RNA is isolated with Trizol® (Gibco) according to the manufacturer's instructions. Total RNA ([…]) is subjected to Northern blotting. The fragment used as a probe is a 431bp PCR product of ABC1 corresponding to nucleotides (nt's) 3306-3737 of Genbank Ace # AJ012376 (T. Langmann et al,1999, BBRC 257, 29-33). The sequences of the primers usd to generate the fragment are: […] nt. pos 3306-3326 (forward); […] nt. pos 3737-3711 (reverse). Blots are hybridized with this probe labelled with [a32P]dCTP (Amersham) with ExpressHyb® (Clontech, Palo Alto Calif.) according to manufacturer's protocol, washed, and exposed to X-ray film. Resulting signals are quantitated by densitometry.
A representative example of a Northern blotting analysis is represented in FIG. 1 and corresponding graph bar in FIG. 2.

| Structure (SMILES) | increase in up-regulation of ABC 1 expression relative to treatment with DMSO |
| --- | --- |
| c1ccc(Cc2nnn[nH]2)c(COc2ccc(OCc3ccc4ccccc4n3)cc2)c1 [compound of formula VI, 5-[2-(4-(2-quinolinylmethoxy)phenoxymethyl)benzyl]tetrazole] | fourteen fold increase |

same assay, conditions: treatment at 1 and 10 μM, Northern blotting (FIG. 1, FIG. 2)

| Structure (SMILES) | up-regulation of ABC1 expression |
| --- | --- |
| Cc1cccc(COc2cccc(OCc3ccc4ccccc4n3)c2)c1C(=O)O [RPR52] | up-regulation of ABC1 expression |
| Cc1cc(OCc2ccccc2)cc(OCc2cccc(OCc3ccc4ccccc4n3)c2)c1C(=O)O [RPR64] | up-regulation of ABC1 expression |

tested on: ABC1 expression; experiment: ABC1 up-regulation in human primary hepatocytes (RNA analysis); type: cell-based; conditions: human primary hepatocytes (FIG. 4)
Experimental: Assay Example 2: ABC 1 Up-regulation in Human Hepatocytes and Human Macrophages Derived Monocytes by Fenofibric Acid, and for Wy 14,643 and Related Cholesterol Efflux in Macrophages Human liver specimens are collected from healthy multiorgan donors for transplantation who died after severe traumatic brain injury. Hepatocytes are obtained by a two-step collagenase perfusion (REF). Cells are resuspended in minimal essential medium with Earl's salts with 10% FCS, 2 mM glutamine, […] gentamycin, seeded at density of 1.5×10^5 cells/cm^2 in plastic culture dishes coated with 20 mg rat tail collagene type I (Sigma).Medium is renewed after 4 hours of adhesion. After 20 hours the medium is discarded and differents compounds added at the indicated concentrations in serum-free medium. Total cellular RNA is extracted from differentated macrophages treated for 6 hours with different compounds using the RNA plus kit (Bioprobe System, Montreuil, france). RNA from human hepatocytes are prepared as described by Chomczynski and Sacchi. For RT-PCR analysis, total RNA is reverse transcribed using random hexamer primers and Superscript reverse transcriptase (Life Technologies) as sebsequently amplified by PCR. The resulting products are separated on a 1% agrose gel and stained with ethidium bromide.

| Structure (SMILES) | ABC1 up-regulation |
| --- | --- |
| Cc1cccc(Nc2cc(Cl)nc(SCC(=O)O)n2)c1C [Wy 14,643, pyrinixic acid] | ABC1 up-regulation |

tested on: not given; experiment: not given; conditions: not given

| melting point | Structure (SMILES) |
| --- | --- |
| 86 to 87 °C | N#Cc1cccc(OCc2cccc(OCc3ccc4ccccc4n3)c2)c1 [Example 7, 3-[3-(2-quinolinylmethyloxy)benzyloxy]benzonitrile] |
| 169 to 172 °C | c1cc(COc2cccc(-c3nnn[nH]3)c2)cc(OCc2ccc3ccccc3n2)c1 [Example 10, 5-[3-(3-(2-quinolinylmethyloxy)benzyloxy)-phenyl]tetrazole] |
| 210 to 213 °C | c1ccc2nc(COc3ccc(COc4ccc(-c5nnn[nH]5)cc4)cc3)ccc2c1 [Example 11, 5-[4-(4-(2-quinolinylmethyloxy)benzyloxy)phenyl]tetrazole] |
| 179 to 181 °C | c1ccc2nc(COc3ccc(COc4ccc(Cc5nnn[nH]5)cc4)cc3)ccc2c1 [Example 12, 5-[4(4-(2-quinolinylmethyloxy)benzyloxy)benzyl]tetrazole] |
| 100 to 101 °C | COC(=O)c1ccc(OCc2cccc(OCc3ccc4ccccc4n3)c2)c(OC)c1 [Example 14, methyl 3-methoxy-4-(3-(2-quinolinylmethyloxy)benzyloxy)-benzoate] |
| 188 to 190 °C | COc1cc(C(=O)O)ccc1OCc1cccc(OCc2ccc3ccccc3n2)c1 [Example 15, 3-methoxy-4-(3-(2-quinolinylmethyloxy)benzyloxy)benzoic acid] |
| 93 to 94 °C | COC(=O)c1cccc(COc2cccc(OCc3ccc4ccccc4n3)c2)c1 [Example 19, methyl 3-(3-(2-quinolinylmethyloxy)phenoxymethyl)benzoate] |
| 149 to 151 °C | O=C(O)c1cccc(COc2cccc(OCc3ccc4ccccc4n3)c2)c1 [Example 20, 3-(3-(2-quinolinylmethyloxy)phenoxymethyl)-benzoic acid] |
| 145.5 to 147 °C | c1cc(OCc2ccc3ccccc3n2)cc(OCc2ccccc2Cc2nnn[nH]2)c1 [Example 28, 5-(2-(3-(2-quinolinylmethyloxy)phenoxymethyl)benzyl)tetrazole] |
| 166 to 170 °C | c1cc(OCc2ccc3ccccc3n2)cc(OCc2ccccc2-c2nnn[nH]2)c1 [Example 28, 5-(2-(3-(2-quinolinylmethyloxy)phenoxymethyl)phenyl)tetrazole] |
| 115 °C (dec.) | c1cc(OCc2cccc(-c3nnn[nH]3)c2)cc(OCc2ccc3ccccc3n2)c1 [Example 28, 5-(3-(3-(2-quinolinylmethyloxy)phenoxymethyl)phenyl)tetrazole] |
| 149 to 151 °C | c1cc(OCc2ccc(Cc3nnn[nH]3)cc2)cc(OCc2ccc3ccccc3n2)c1 [Example 28, 5-(4-(3-(2-quinolinylmethyloxy)phenoxymethyl)benzyl)tetrazole] |
| 131 to 132 °C | c1cc(COc2ccc(OCc3ccc4ccccc4n3)cc2)cc(OCc2nnn[nH]2)c1 [Example 32, 5-(3-(4-(2-quinolinylmethyloxy)phenoxymethyl)phenoxymethyl)tetrazole] |
